“And” between values parts separate entries of the source, which are not always exact repeats. Equal entries are not always repeated. “Also recorded” adds a separate entry of the source.
Columns and labels:
[1] = test system: Kunming mice; test: Marrow micronucleus test on mice; format: in vivo; details: for micronuclei cells in 1000 polychromatic erythrocytes: dosed 4 days, test on day 5, II-2 120, II-85 74, cyclophosphane 60 mg/kg/day
Description: Ten Kunming mice (Experimental Animal Center, China Medical University), half male and half female, were used. Compound II-2 was administered via gastric gavage at 120 mg/kg/day, and II-85 was administered to 74 mg/kg/day. The drug was administered for 4 days continuously. Marrow micronucleus test was performed on day 5.
Mice in positive control group were administered cyclophosphane at 60 mg/kg/day. Mice in negative control group were administered normal saline at 0.1 ml/10 g/day. The drug was administered for 4 days continuously. Marrow micronucleus test was performed on day 5.
The mice were killed by snapping neck, and then femur and sternum were excised, with blood and muscles removed, epiphysis cut off. Then marrow from sternum was squeezed to clean glassslide with bovine serum by using a pair of hemostatic forceps, or marrow on femur was flushed directly with bovine serum onto clean glassslide. Then the substance on glassslide were mixed well and smeared. Then the prepared and dried marrow smears were put into staining tank with methanol, fixed for 15 min, picked out to dry in the open air. After marrow smears were dried, it would be stained in freshly prepared Giemsa solution (1 volume of Giemsa stock solution and 9 volumes of pH 6.8 phosphate buffer) for 10 min, staining solution was flushed away with little stream. Then the smear was dried in the open air and observed under a microscope.

[2] = test system: AD constricted rabbit aorta; test: Relaxing effects on vascular smooth muscle constricted by adrenaline hydrochloride (AD) in vitro; details: relaxation of rabbit aorta constricted by adrenaline (10^−5 mol/L), mean±SEM, n=5; for EC50: Oryctolagus cuniculus
Procedure, shortened: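 Rabbit aortic strips in K-H solution precontracted with adrenaline hydrochloride (10^−5 mol/L) after a reproducible second contraction; compounds added cumulatively over ranges from 1×10^−10 up to 1×10^−2 mol/L depending on the compound series. Relaxation expressed as % of maximal relaxation versus −log concentration, mean±SEM, n=5.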

[3] = test system: Calcium Channel (Ca^2+); test: Antagonism of accumulative constriction of rabbit aorta by CaCl2; details: calcium free high kalium depolarization
Description: (§3) Rabbits were hit to be dizzy, with thoracic cavity quickly cut open, descending aorta exposed, connective tissues and surrounding fatty tissues (for hydroxytryptamine receptor antagonism test, endothelia should be removed with smooth stainless steel rod) removed, the aorta was cut into 3-5 mm vascular rings which were penetrated together with a steel wire with one end fixed on ventilation hook, another end on pressure tonotransducer. The aorta rings were put into a bath tube with 20 ml of nutritional solution, and the tension changes were recorded by using the recorder. The temperature of bath tube was maintained at 37±0.5° C., and mixed gas (95% O2+5% CO2) was ventilated at a rate of I-2 bubbles/second. The initial load of the sample was 1.5 g, nutritional solution was changed for every 20 min. The sample was balanced for 2 hours, and the experiment would be started when baseline became stable.
After sample tension became stable, calcium K-H solution was used to flush the sample for 3 times, and incubated with calcium free K-H solution for 40 min. Calcium free high kalium solution was added into the sample for depolarization for 20 min, then CaCl2 (10^−6-10^−2 mol/L) was added into bath tube till maximal response was achieved, and then waveform was recorded. Then K-H solution was used to flush the sample repeatedly, the K-H solution was changed for every 20 min, and the sample was balanced for 60 min. […]
After sample tension became stable, calcium K-H solution was used to flush the sample for 3 times, and incubated with calcium free K-H solution for 40 min. Calcium free high kalium solution was added into the sample for depolarization for 20 min, then CaCl2 (10^−6-10^−2 mol/L) was added into bath tube till maximal response was achieved, and then waveform was recorded. […] Calcium free high kalium solution was added into the sample for depolarization for 20 min, then amlodipine (10^−7 mol/L) was added into bath tube, which was incubated for 15 min, then CaCl2 (10^−6-10^−2 mol/L) was added by using the same method till maximal response was achieved, and then waveform was recorded. […]

[4] = test system: α1 receptor; test: Antagonism of accumulative constriction of rabbit aorta by noradrenaline (α-receptor agonist)
Description: Then samples were flushed with K-H solution repeatedly, K-H solution was changed for every 20 min, and the samples were balanced for 60 min. After baseline recovered to be stable, doxazosin (10^−7 mol/L) was added, and noradrenaline (NA) (10^−8-6×10^−5 mol/L) was added by using the same method 15 min later.
NA was also added by using the same method 15 min later.

[5] = Experiment on acute toxicity; details: both sexes, Kunming, mouse, in vivo, po; mice, gastric gavage
Excerpt: (§1) Kunming mice (Experimental Animal Center, China Medical University) were used, half male and half female, 18-22 g, brief probability unit method was used to test the acute toxicity of the compound.
(§2) Ten Kunming mice (Experimental Animal Center, China Medical University) were used, half male and half female, 18-22 g, brief probability unit method was used to test the acute toxicity of the compound.

[6] = test system: Kunming mice; test: Experiment on acute toxicity; details: mouse, in vivo
Excerpt: as §1, §2

[7] = biological target: 5-HT2A receptor (Oryctolagus cuniculus, UniProt G1SYA7); test: Antagonism of accumulative constriction of rabbit aorta by 5-HT
Description: as §3
After sample tension became stable, a piece of waveform was recorded, 5-HT (10^−7-3×10^−4 mol/L) was added into the bath tube until maximal response, then waveform was recorded. […] 5-HT was also added by using the same method 20 min later. The maximal response was considered 100%, 5-HT constriction percentage was used as Y axis, negative logarithms of different concentrations of 5-HT were used as X axis to draw dose effective curve.
After sample tension became stable, a piece of waveform was recorded, 5-HT (10^−8-10^−3 mol/L) was added into the bath tube until maximal response, then waveform was recorded. […] 5-HT was also added by using the same method 20 min later. The maximal response was considered 100%, 5-HT constriction percentage was used as Y axis, negative logarithms of different concentrations of 5-HT were used as X axis to draw dose effective curve (data were expressed in mean±SEM ( ? ), *P<0.05, **P<0.01, n=7).
After sample tension became stable, a piece of waveform was recorded, 5-HT (10^−8-3×10^−4 mol/L) was added into the bath tube until maximal response, then waveform was recorded. […] 5-HT was also added by using the same method 20 min later. […]

[8] = test system: SD rats; test: Effects on blood pressure of SD rats anesthetized with urethane; format: in vivo; details: for diastolic blood pressure (DBP) / mean artery pressure (MAP) / systolic blood pressure (SBP): 4.0 mg/kg gastric gavage, n = 4
Description: Four SD rats were anesthetized with urethane ([…]), after vital signs became stable, blood pressure was measured by common carotid intubation. After blood pressure became stable, compound II-2 was administered at 4.0 mg/kg via gastric gavage, blood pressure changes with time were observed and recorded.
Five SD rats (provided by Experimental Animal Center, China Medical University) were anesthetized with urethane ([…]), after vital signs became stable, blood pressure was measured by common carotid intubation. After blood pressure became stable, compound II-85 was administered at 1.5 mg/kg via gastric gavage, blood pressure changes with time were observed and recorded.

[9] = test system: high kalium concentration constricted rabbit aorta; test: Relaxing effects on vascular smooth muscle constricted by high kalium concentration in vitro; details: relaxation of rabbit aorta constricted by high kalium solution (K+ 60 mmol/L), mean±SEM, n=5; for EC50: Oryctolagus cuniculus
Procedure, shortened: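 Rabbit aortic rings pre-challenged with adrenaline (10^−5 mol/L), washed and re-equilibrated 60 min in K-H solution, then constricted with high-K+ solution; compounds added cumulatively over 1×10^−10–1×10^−2 mol/L depending on series. Relaxation expressed as % of maximal relaxation vs −log concentration; mean±SEM, n=5.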

[10] = test system: NA constricted rabbit aorta; test: Relaxing effects on vascular smooth muscle constricted by noradrenaline (NA) in vitro; details: relaxation of rabbit aorta constricted by noradrenaline (10^−5 mol/L), mean±SEM, n=5; for EC50: Oryctolagus cuniculus
Procedure, shortened: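 Rabbit aortic rings in K-H solution, pre-tested with adrenaline (10^−5 mol/L), washed and re-equilibrated 60 min, then constricted with noradrenaline (10^−5 mol/L). Compounds added cumulatively from 1×10^−10 up to 1×10^−2 or 1×10^−3 mol/L; relaxation expressed as % of maximal relaxation versus −log concentration (mean±SEM, n=5).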

[11] = test system: α1 receptor; test: Antagonism of accumulative constriction of rabbit aorta by phenylephrine (α-receptor agonist); details: agonist (R)-phenylephrine
Description: PE was also added by using the same method 15 min later. […] The curve was shown in FIG. 21 after positive drug doxazosine mesylate (10^−7 mol/L) was added.

Sequence of 5-HT2A receptor (G1SYA7 1-469): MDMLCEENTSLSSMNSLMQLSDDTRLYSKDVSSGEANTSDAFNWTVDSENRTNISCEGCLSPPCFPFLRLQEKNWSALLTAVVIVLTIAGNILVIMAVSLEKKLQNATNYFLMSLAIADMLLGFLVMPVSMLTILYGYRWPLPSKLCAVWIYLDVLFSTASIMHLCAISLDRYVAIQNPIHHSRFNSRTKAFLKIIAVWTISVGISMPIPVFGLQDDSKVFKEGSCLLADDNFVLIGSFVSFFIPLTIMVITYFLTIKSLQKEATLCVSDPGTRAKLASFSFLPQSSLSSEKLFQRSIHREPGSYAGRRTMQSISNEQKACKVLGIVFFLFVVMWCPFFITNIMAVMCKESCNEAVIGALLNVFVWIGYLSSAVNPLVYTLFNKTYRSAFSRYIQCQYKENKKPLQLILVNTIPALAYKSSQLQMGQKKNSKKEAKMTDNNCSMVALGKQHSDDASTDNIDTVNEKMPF

## FC(F)(F)c1cccc(N2CCN(CCCCn3cnc4ccccc43)CC2)c1 [II-2, 1-(4-(4-(3-trifluoromethylphenyl)piperazine-1-yl)butyl)-1H-benzimidazole]
[1]
  marrow micronucleus test result: negative
  micronuclei cells in 1000 polychromatic erythrocytes: 2.0±0.333%
[2]
  EC50: 1.86 µM
[3]
  PA2 value to resist constriction of rabbit aorta by CaCl2: 5.61±0.04
[4]
  PA2 value to resist constriction of rabbit aorta by NA: 7.37±0.08
[5]
  LD50: 362 mg/kg
[6]
  therapeutic index: great therapeutic index
  toxicity: mild toxicity
[7]
  Kb: 1.95 µM
[8]; 0 min post dosing
  diastolic blood pressure (DBP): 75.92 mmHg
  mean artery pressure (MAP): 91.50 mmHg
  systolic blood pressure (SBP): 122.66 mmHg
[8]; 15 min post dosing
  diastolic blood pressure (DBP): 62.21 mmHg
  mean artery pressure (MAP): 73.40 mmHg
  systolic blood pressure (SBP): 95.77 mmHg
[8]; 30 min post dosing
  diastolic blood pressure (DBP): 61.84 mmHg
  mean artery pressure (MAP): 74.52 mmHg
  systolic blood pressure (SBP): 99.88 mmHg
[8]; 60 min post dosing
  diastolic blood pressure (DBP): 58.04 mmHg
  mean artery pressure (MAP): 72.77 mmHg
  systolic blood pressure (SBP): 102.22 mmHg
[8]; 90 min post dosing
  diastolic blood pressure (DBP): 53.86 mmHg
  mean artery pressure (MAP): 68.81 mmHg
  systolic blood pressure (SBP): 98.71 mmHg
[8]; 120 min post dosing
  diastolic blood pressure (DBP): 69.10 mmHg
  mean artery pressure (MAP): 83.12 mmHg
  systolic blood pressure (SBP): 111.16 mmHg
[8]; 150 min post dosing
  diastolic blood pressure (DBP): 70.79 mmHg
  mean artery pressure (MAP): 84.47 mmHg
  systolic blood pressure (SBP): 111.82 mmHg
[8]; 180 min post dosing
  diastolic blood pressure (DBP): 71.08 mmHg
  mean artery pressure (MAP): 84.83 mmHg
  systolic blood pressure (SBP): 112.34 mmHg
[8]; 210 min post dosing
  diastolic blood pressure (DBP): 75.26 mmHg
  mean artery pressure (MAP): 88.54 mmHg
  systolic blood pressure (SBP): 115.12 mmHg
[8]; anesthetized SD rats, gastric gavage
  time until blood pressures recovered to those before drug dosing: 3.5 h
[8]; in vivo bulk testing on rats
  oral absorption: good oral absorption
[8]; rats, gastric gavage
  hypotensive effects: good hypotensive effects; also recorded: obvious hypotensive effects
[9]
  EC50: 4.57 µM

## FC(F)(F)c1cccc(N2CCN(CCCCn3nnc4ccccc43)CC2)c1 [II-31, 1-(4-(4-(3-trifluoromethylphenyl)piperazine-1-yl)butyl)-1H-benzotriazole]
[2]
  EC50: 0.646 µM
[3]
  PA2 value to resist constriction of rabbit aorta by CaCl2: 6.56±0.032
[4]
  PA2 value to resist constriction of rabbit aorta by NA: 6.02±0.13
[7]
  Kb: 0.188 µM
[9]
  EC50: 2.82 µM

## FC(F)(F)c1cccc(C2CCN(CCCOn3cnc4ccccc43)CC2)c1 [II-117, N-(4-(1H-benzimidazole-1-yl)propoxyl)-4-(3-trifluoromethylphenyl)piperidine]
[2]
  −logEC50: 5.31 ± 0.06
[10]
  EC50: 7.08 µM
[9]
  −logEC50: 4.17 ± 0.06

## c1coc(C2CCN(CCCCn3cnc4ccccc43)CC2)c1 [II-118, N-(4-(1H-benzimidazoyl-1-yl)butyl)-4-(2-furyl)piperidine]
[2]
  −logEC50: 4.43 ± 0.05
[10]
  EC50: 58.9 µM
[9]
  −logEC50: 3.53 ± 0.03

## c1ccc2c(c1)ncn2CCCCN1CCC(c2ccncc2)CC1 [II-119, N-(4-(1H-benzimidazoyl-1-yl)butyl)-4-(4-pyridyl)piperidine]
[2]
  −logEC50: 4.86 ± 0.04
[10]
  EC50: 21.9 µM
[9]
  −logEC50: 3.26 ± 0.04

## c1cnc(C2CCN(CCCCn3cnc4ccccc43)CC2)nc1 [II-120, N-(4-(1H-benzimidazoyl-1-yl)butyl)-4-(2-pyrimidinyl)piperidine]
[2]
  EC50: 19.1 µM
[10]
  EC50: 30.2 µM
[9]
  −logEC50: 3.32 ± 0.02

## c1ccc2c(c1)nnn2CCCCN1CCC(C2CCCCC2)CC1 [II-121, N-(4-(1H-benzotriazole-1-yl)butyl)-4-(4-cyclohexyl)piperidine]
[2]
  EC50: 40.7 µM
[10]
  EC50: 36.3 µM
[9]
  −logEC50: 3.14 ± 0.05

## c1ccc2c(C3CCN(CCCCn4nnc5ccccc54)CC3)cccc2c1 [II-122, N-(4-(1H-benzotriazole-1-yl)butyl)-4-(1-naphthyl)piperidine]
[2]
  EC50: 60.3 µM
[10]
  EC50: 45.7 µM
[9]
  −logEC50: 3.04 ± 0.03

## c1ccc2nc(C3CCN(CCCCn4nnc5ccccc54)CC3)cnc2c1 [II-123, N-(4-(1H-benzotriazole-1-yl)butyl)-4-(2-quinoxalinyl)piperidine]
[2]
  EC50: 14.8 µM
[10]
  EC50: 29.5 µM
[9]
  −logEC50: 3.13 ± 0.04

## COc1ccc2nnn(CCCN3CCC(c4noc5cc(F)ccc45)CC3)c2c1 [II-140, N-(3-(6-methoxyl-1H-benzotriazole-1-yl)propyl)-4-(3-(6-fluorobenzisoxazolyl))piperidine]
[2]
  EC50: 5.89 µM
[10]
  −logEC50: 5.31 ± 0.05
[9]
  −logEC50: 5.02 ± 0.05

## COc1ccc2nnn(OCCN3CCC(c4noc5ccccc45)CC3)c2c1 [II-147, N-(2-(6-methoxylbenzotriazolyl)ethoxyl)-4-(3-benzisoxazolyl)piperidine]
[2]
  EC50: 93.3 µM
[10]
  EC50: 49 µM
[9]
  EC50: 295 µM

## c1ccc2c(c1)nnn2OCCN1CCC(c2noc3ccccc23)CC1 [II-148]
[2]
  EC50: 55 µM
[10]
  EC50: 91.2 µM
[9]
  EC50: 55 µM

## O=P1(N(CCCl)CCCl)NCCCO1 (stereo not drawn) [cyclophosphane, reference compound]
[1]
  micronuclei cells in 1000 polychromatic erythrocytes: 12%

## COc1cc2nc(N3CCN(C(=O)C4COc5ccccc5O4)CC3)nc(N)c2cc1OC (stereo not drawn) [doxazosin, reference compound]
[11]
  PA2 value to resist constriction of rabbit aorta by PE: 7.43±0.12
[4]
  PA2 value to resist constriction of rabbit aorta by NA: 7.52±0.04 and 7.76±0.24

Source: patent US9415047B2, “Use of benzo five-membered nitrogen heterocyclic piperazine or piperidine derivatives” (Liaoning Emmy Biological Pharmaceutical Co., Ltd., priority 2012, dated 2016)
